Measurements: patent US20230079819A1, “COMPOUNDS AND USES THEREOF” (Foghorn Therapeutics Inc., priority 2019, published 2023)
Where two headings read alike, the source gives them in different places.

Assays:
BRG-1 = biological target: T1, BRG-1 (Homo sapiens, UniProt P51532); test: ATPase catalytic activity of BRG-1, ADP-Glo in vitro biochemical assay; details: 30 nM BRG-1, 400 μM ATP
T1 construct: made in house; host or cells: High Five insect cells

BRM = biological target: T2, BRM (Homo sapiens, UniProt P51531); test: ATPase catalytic activity of BRM, ADP-Glo in vitro biochemical assay; details: 30 nM BRM, 400 μM ATP
T2 construct: made in house; host or cells: High Five insect cells
T2 sequence (P51531 whole entry): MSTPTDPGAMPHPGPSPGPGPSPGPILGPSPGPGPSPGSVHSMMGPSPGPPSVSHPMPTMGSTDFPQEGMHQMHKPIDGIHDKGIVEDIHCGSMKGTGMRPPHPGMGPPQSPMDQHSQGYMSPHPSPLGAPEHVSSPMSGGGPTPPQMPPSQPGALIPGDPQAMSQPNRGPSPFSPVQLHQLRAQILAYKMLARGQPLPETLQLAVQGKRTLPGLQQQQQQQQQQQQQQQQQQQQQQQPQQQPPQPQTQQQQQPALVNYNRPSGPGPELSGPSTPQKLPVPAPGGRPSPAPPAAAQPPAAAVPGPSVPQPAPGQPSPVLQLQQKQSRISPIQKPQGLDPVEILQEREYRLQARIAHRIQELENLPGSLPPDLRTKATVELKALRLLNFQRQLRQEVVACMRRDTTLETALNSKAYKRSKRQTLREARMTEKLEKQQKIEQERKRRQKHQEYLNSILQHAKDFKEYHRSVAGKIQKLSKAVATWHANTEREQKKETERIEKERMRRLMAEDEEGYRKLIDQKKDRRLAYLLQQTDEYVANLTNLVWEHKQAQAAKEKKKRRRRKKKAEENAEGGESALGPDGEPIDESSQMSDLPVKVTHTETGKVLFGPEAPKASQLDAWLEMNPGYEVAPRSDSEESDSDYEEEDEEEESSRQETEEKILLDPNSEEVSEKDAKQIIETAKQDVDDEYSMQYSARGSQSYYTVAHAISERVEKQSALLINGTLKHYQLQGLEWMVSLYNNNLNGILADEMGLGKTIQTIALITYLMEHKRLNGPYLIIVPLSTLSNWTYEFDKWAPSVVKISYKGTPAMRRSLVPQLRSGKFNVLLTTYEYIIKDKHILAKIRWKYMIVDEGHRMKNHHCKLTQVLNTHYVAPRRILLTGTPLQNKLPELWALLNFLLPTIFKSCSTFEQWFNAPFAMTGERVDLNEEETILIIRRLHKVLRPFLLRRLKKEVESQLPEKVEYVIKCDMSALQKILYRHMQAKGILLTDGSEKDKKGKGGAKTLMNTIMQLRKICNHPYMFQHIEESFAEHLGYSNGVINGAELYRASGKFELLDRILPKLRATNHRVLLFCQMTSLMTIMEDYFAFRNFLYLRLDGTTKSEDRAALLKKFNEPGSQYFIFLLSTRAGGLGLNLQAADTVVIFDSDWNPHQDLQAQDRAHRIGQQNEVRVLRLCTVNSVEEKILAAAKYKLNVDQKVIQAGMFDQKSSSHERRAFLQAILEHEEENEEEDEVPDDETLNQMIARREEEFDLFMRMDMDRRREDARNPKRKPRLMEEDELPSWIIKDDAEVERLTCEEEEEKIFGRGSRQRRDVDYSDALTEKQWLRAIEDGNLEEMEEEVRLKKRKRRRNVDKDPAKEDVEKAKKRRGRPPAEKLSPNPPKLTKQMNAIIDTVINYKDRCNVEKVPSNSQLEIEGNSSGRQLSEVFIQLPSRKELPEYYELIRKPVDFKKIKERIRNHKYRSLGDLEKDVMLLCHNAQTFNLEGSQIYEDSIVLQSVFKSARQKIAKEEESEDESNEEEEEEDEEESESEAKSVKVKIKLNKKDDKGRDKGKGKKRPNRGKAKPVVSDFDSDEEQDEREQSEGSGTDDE

[1] = ATPase catalytic activity, read-out: BRG1 IP50
[2] = ATPase catalytic activity, read-out: BRM IP50
[3] = ATPase catalytic activity, read-out: BRG1 IP50 (μM)*
[4] = ATPase catalytic activity, read-out: BRM IP50 (μM)*

T1 sequence (P51532 whole entry): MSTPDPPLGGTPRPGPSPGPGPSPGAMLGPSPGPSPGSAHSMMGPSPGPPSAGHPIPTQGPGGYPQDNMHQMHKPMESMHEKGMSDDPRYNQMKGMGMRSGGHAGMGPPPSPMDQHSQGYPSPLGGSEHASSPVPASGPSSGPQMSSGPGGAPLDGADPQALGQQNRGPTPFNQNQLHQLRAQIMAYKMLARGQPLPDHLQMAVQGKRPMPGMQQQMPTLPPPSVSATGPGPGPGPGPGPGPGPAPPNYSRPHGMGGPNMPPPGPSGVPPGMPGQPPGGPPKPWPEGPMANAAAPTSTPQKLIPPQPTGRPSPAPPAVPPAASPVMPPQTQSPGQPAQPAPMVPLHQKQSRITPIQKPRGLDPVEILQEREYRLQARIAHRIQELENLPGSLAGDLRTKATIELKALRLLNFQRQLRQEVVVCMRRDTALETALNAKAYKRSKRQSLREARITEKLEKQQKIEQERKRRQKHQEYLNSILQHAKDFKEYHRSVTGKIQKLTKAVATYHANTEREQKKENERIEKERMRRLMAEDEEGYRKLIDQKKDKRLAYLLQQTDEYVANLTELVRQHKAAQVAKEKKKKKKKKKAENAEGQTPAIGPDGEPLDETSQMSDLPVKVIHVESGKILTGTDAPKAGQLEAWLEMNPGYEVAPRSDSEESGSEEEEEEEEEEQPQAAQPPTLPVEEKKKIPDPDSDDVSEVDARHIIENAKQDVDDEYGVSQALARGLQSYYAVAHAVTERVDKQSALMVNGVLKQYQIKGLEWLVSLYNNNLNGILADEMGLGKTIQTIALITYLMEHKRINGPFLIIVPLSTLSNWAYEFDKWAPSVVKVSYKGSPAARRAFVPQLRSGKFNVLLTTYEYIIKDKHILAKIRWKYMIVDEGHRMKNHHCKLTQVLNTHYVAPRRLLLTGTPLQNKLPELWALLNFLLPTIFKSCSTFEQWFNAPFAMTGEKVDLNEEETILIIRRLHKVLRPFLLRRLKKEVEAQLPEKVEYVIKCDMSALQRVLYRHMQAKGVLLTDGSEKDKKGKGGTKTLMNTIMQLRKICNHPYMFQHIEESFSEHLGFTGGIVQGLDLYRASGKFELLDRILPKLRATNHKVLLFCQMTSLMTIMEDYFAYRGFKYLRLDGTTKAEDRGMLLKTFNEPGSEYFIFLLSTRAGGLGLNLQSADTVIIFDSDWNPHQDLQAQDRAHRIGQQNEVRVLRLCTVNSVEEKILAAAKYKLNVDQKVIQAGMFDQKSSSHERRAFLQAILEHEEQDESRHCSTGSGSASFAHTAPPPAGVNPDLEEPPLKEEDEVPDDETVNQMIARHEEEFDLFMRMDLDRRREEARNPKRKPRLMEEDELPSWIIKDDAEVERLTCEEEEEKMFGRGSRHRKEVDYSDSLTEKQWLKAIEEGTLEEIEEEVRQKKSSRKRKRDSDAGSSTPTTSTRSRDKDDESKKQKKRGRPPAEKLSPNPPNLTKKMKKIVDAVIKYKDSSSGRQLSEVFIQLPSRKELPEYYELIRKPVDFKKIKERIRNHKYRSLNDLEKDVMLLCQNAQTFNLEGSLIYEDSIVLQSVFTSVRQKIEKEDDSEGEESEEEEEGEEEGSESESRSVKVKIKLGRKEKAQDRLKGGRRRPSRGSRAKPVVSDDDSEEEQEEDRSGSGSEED

Compound	IC50 (BRG-1; [1])	IC50 (BRM; [2])	IC50 (BRG-1; [3])	IC50 (BRM; [4])	further results
CC1(n2ccc(C(=O)NCC(=O)Nc3nc(-c4cccc(OC5CC5)c4F)cs3)c2)COC1 [Compound 548]	> 0.1 µM	> 0.1 µM			
COC[C@H](NC(=O)c1cn(C(C)(C)C#N)cn1)C(=O)Nc1nc(-c2ccc3ccn(C)c(=O)c3c2)cs1 [Compound 802]					IC50 (BRG-1; read-out: BRG1 IP50): > 0.01 µM; IC50 (BRM; read-out: BRM IP50): > 0.01 µM
CC(F)C(C)(F)n1ccc(C(=O)NCC(=O)Nc2nc(-c3cccc(N4C[C@@H](C)O[C@@H](C)C4)n3)cs2)c1 (some centres unmarked) [Compound 749]	> 0.1 µM	> 0.1 µM			
CS(=O)(=O)n1ccc(C(=O)NCC(=O)Nc2nc(-c3cccc(-c4ccnc(OCCN)c4)c3)cs2)c1 [Compound 442]	< 0.01 µM	< 0.01 µM			
Cn1cnc2ccc(-c3csc(NC(=O)CNC(=O)c4ccn(C(C)(C)C)c4)n3)cc2c1=O [Compound 494]	> 0.01 µM	> 0.01 µM			
CCS(=O)(=O)n1ccc(C(=O)NCC(=O)Nc2nc(-c3cccc(N4CCC(O)CC4)c3)cs2)c1 [Compound 209]			> 0.01 µM	> 0.01 µM	
CS(=O)(=O)n1ccc(C(=O)NCC(=O)Nc2nc(-c3cccc(N4CC[C@H]5COC[C@@H]5C4)n3)cs2)c1 [Compound 745]	< 0.01 µM	< 0.01 µM			
Cc1cc(-c2cccc(-c3csc(NC(=O)CNC(=O)c4ccn(S(C)(=O)=O)c4)n3)c2)c(F)cn1 [Compound 413]	< 0.01 µM	< 0.01 µM			
CC1(n2ccc(C(=O)NCC(=O)Nc3nc(-c4cccc(N5CCOCC5)n4)cs3)c2)COC1 [Compound 341]			> 0.1 µM	> 0.01 µM	
COC[C@H](NC(=O)c1ccn(S(C)(=O)=O)c1)C(=O)Nc1nc(-c2cccc(N3CC(OC)C3)c2)cs1 [Compound 367]			> 0.01 µM	> 0.01 µM	
COC[C@H](NC(=O)c1ccn(S(C)(=O)=O)c1)C(=O)Nc1nc(-c2cccc(OC)c2F)cs1 [Compound 710]	> 0.01 µM	> 0.01 µM			
CS(=O)(=O)n1ccc(C(=O)NCC(=O)Nc2nc(-c3ccc4c(c3)OCO4)cs2)c1 [Compound 574]	> 0.01 µM	> 0.01 µM			
COCC1CCN(c2cccc(-c3csc(NC(=O)CNC(=O)c4ccn(S(C)(=O)=O)c4)n3)c2)CC1 [Compound 91, N-(2-((4-(3-(4-(methoxymethyl)piperidin-1-yl)phenyl)thiazol-2-yl)amino)-2-oxoethyl)-1-(methylsulfonyl)-1H-pyrrole-3-carboxamide]			> 0.1 µM	> 0.01 µM	
CC(C)(C)n1ccc(C(=O)NCC(=O)Nc2nc(-c3cccc(N4CCC5(CCOCC5)C4)n3)cs2)c1 [Compound 624]	> 0.1 µM	> 0.1 µM			
COC[C@H](NC(=O)c1ccn(S(C)(=O)=O)c1)C(=O)Nc1nc(-c2cccc(N3CCC(C(F)F)CC3)c2)cs1 [Compound 557, (S)—N-(1-((4-(3-(4-(difluoromethyl)piperidin-1-yl)phenyl)thiazol-2-yl)amino)-3-methoxy-1-oxopropan-2-yl)-1-(methylsulfonyl)-1H-pyrrole-3-carboxamide]	> 0.01 µM	> 0.01 µM			
C[C@@H]1CN(c2cccc(-c3csc(NC(=O)CNC(=O)c4ncc(C(C)(C)C)s4)n3)n2)C[C@H](C)O1 [Compound 822]					IC50 (BRG-1; read-out: BRG1 IP50): > 0.1 µM; IC50 (BRM; read-out: BRM IP50): > 0.01 µM
CS(=O)(=O)n1ccc(C(=O)NCC(=O)Nc2nc(-c3cccc(C#CC4COC4)c3)cs2)c1 [Compound 349]			> 0.01 µM	> 0.01 µM	
Cn1c(=O)ccc2ccc(-c3csc(NC(=O)CNC(=O)c4ccn(S(C)(=O)=O)c4)n3)cc21 [Compound 12, N-(2-((4-(1-methyl-2-oxo-1,2-dihydroquinolin-7-yl)thiazol-2-yl)amino)-2-oxoethyl)-1-(methylsulfonyl)-1H-pyrrole-3-carboxamide]			> 0.01 µM	> 0.01 µM	
CC(C)(C)n1ccc(C(=O)NCC(=O)Nc2nc(-c3cccc(OCC4COC4)c3)cs2)c1 [Compound 122, 1-(tert-butyl)-N-(2-((4-(3-(oxetan-3-ylmethoxy)phenyl)thiazol-2-yl)amino)-2-oxoethyl)-1H-pyrrole-3-carboxamide]			> 0.01 µM	> 0.01 µM	
CS(=O)(=O)n1ccc(C(=O)NCC(=O)Nc2nc(-c3cccc(N4CC[C@H](N)C(F)(F)C4)c3)cs2)c1 [Compound 552]	> 0.01 µM	> 0.01 µM			
COc1cc(F)cc(-c2csc(NC(=O)CNC(=O)c3ccn(S(C)(=O)=O)c3)n2)c1 [Compound 701]	> 0.01 µM	< 0.01 µM			
COC[C@H](NC(=O)c1ccn(S(C)(=O)=O)c1)C(=O)Nc1nc(-c2cccc(-c3ccnc(C)c3)c2)cs1 [Compound 60, (S)—N-(3-methoxy-1-((4-(3-(2-methylpyridin-4-yl)phenyl)thiazol-2-yl)amino)-1-oxopropan-2-yl)-1-(methylsulfonyl)-1H-pyrrole-3-carboxamide]			< 0.01 µM	< 0.01 µM	

Compound	IC50 (BRG-1; [1])	IC50 (BRM; [2])	IC50 (BRG-1; [3])	IC50 (BRM; [4])	further results
C[C@@H]1CN(c2cncc(-c3csc(NC(=O)CNC(=O)c4ccn(C(C)(C)C)c4)n3)n2)C[C@H](C)O1 [Compound 705]	> 0.01 µM	> 0.01 µM			
C[C@@H]1CN(c2cccc(-c3csc(NC(=O)CNC(=O)c4ccn(C5(C#N)CCC5)c4)n3)n2)C[C@H](C)O1 [Compound 731]	< 0.01 µM	< 0.01 µM			
CN(C)C(=O)CN(C)c1cc(-c2cccc(-c3csc(NC(=O)CNC(=O)c4ccn(S(C)(=O)=O)c4)n3)c2)ccn1 [Compound 13, N-(2-((4-(3-(2-((2-(dimethylamino)-2-oxoethyl)(methyl)amino)pyridin-4-yl)phenyl)thiazol-2-yl)amino)-2-oxoethyl)-1-(methylsulfonyl)-1H-pyrrole-3-carboxamide]			> 0.01 µM	> 0.01 µM	
Cn1cc2c(n1)CCN(c1cccc(-c3csc(NC(=O)CNC(=O)c4ccn(C(C)(C)C)c4)n3)n1)C2 [Compound 637]	> 0.01 µM	> 0.01 µM			
C[C@@H]1CN(c2cccc(-c3csc(NC(=O)CNC(=O)c4ccn(C5(C(F)(F)F)CC5)c4)n3)n2)C[C@H](C)O1 [Compound 332]			> 0.1 µM	> 0.01 µM	
COCCOC1CN(c2cccc(-c3csc(NC(=O)CNC(=O)c4ccn(S(C)(=O)=O)c4)n3)c2)C1 [Compound 184]			> 0.01 µM	> 0.01 µM	
Cn1ccc2ccc(-c3csc(NC(=O)CNC(=O)c4ccn(C5(C)CCC5)c4)n3)cc2c1=O [Compound 504]	> 0.01 µM	> 0.01 µM			
COC(=O)N1CCC[C@@H](c2csc(NC(=O)CNC(=O)c3ccn(S(C)(=O)=O)c3)n2)C1 [Compound 578]	> 0.1 µM	> 0.01 µM			
CS(=O)(=O)n1ccc(C(=O)NCC(=O)Nc2nc(-c3cccc(C45CCOCC4C5)n3)cs2)c1 (centres unmarked) [Compound 750, 1-methylsulfonyl-N-[2-[[4-[6-(3-oxabicyclo[4.1.0]heptan-6-yl)-2-pyridyl]thiazol-2-yl]amino]-2-oxo-ethyl]pyrrole-3-carboxamide]	> 0.01 µM	> 0.01 µM			
CS(=O)(=O)n1ccc(C(=O)NCC(=O)Nc2nc(-c3cccc(N4CCO[C@@H](CO)C4)c3)cs2)c1 [Compound 452]	> 0.01 µM	> 0.01 µM			
COC[C@H](NC(=O)c1ccn(S(C)(=O)=O)c1)C(=O)Nc1nc(-c2cccc([C@@H]3CC3(F)F)c2)cs1 [Compound 598]	> 0.01 µM	> 0.01 µM			
CC(C)(C)n1ccc(C(=O)NCC(=O)Nc2nc(-c3cccc(N4CC(F)C4)n3)cs2)c1 [Compound 687]	> 0.1 µM	> 0.01 µM			
CO[C@@H]1CCCN(c2cccc(-c3csc(NC(=O)CNC(=O)c4ccn(S(C)(=O)=O)c4)n3)c2)C1 [Compound 161]			> 0.01 µM	> 0.01 µM	
COC[C@H](NC(=O)c1ccn(S(C)(=O)=O)c1)C(=O)Nc1nc(-c2cccc(-c3cc(C)no3)c2)cs1 [Compound 436]	> 0.01 µM	> 0.01 µM			
CS(=O)(=O)n1ccc(C(=O)NCC(=O)Nc2nc(-c3cccc(CO[C@H]4CC[C@H](O)CC4)c3)cs2)c1 [Compound 105, N-(2-((4-(3-((((1R,4R)-4-hydroxycyclohexyl)oxy)methyl)phenyl)thiazol-2-yl)amino)-2-oxoethyl)-1-(methylsulfonyl)-1H-pyrrole-3-carboxamide]			< 0.01 µM	> 0.01 µM	
CS(=O)(=O)n1ccc(C(=O)NCC(=O)Nc2nc(-c3cccc(N4CCC(CO)(C(F)(F)F)C4)c3)cs2)c1 (centres unmarked) [Compound 169]			> 0.1 µM	> 0.1 µM	
C[C@@H]1CN(c2cccc(-c3csc(NC(=O)CNC(=O)c4ccn(S(C)(=O)=O)c4)n3)c2)C[C@@H](C)O1 [Compound 85, N-(2-((4-(3-((2R, 6R)-2,6-dimethylmorpholino)phenyl)thiazol-2-yl)amino)-2-oxoethyl)-1-(methylsulfonyl)-1H-pyrrole-3-carboxamide]			< 0.01 µM	< 0.01 µM	
CS(=O)(=O)n1ccc(C(=O)NCC(=O)Nc2nc(-c3cccc(N4CCC[C@H](C#N)C4)c3)cs2)c1 [Compound 197]			> 0.01 µM	< 0.01 µM	
CC(C)(O)Cn1ccc(-c2cccc(-c3csc(NC(=O)CNC(=O)c4ccn(C(C)(C)C)c4)n3)c2)n1 [Compound 8, 1-(tert-butyl)-N-(2-((4-(3-(1-(2-hydroxy-2-methylpropyl)-1H-pyrazol-3-yl)phenyl)thiazol-2-yl)amino)-2-oxoethyl)-1H-pyrrole-3-carboxamide]			> 0.01 µM	> 0.01 µM	
CC(C)C[C@H](NC(=O)c1ccn(S(C)(=O)=O)c1)C(=O)Nc1nc(-c2cccc(-c3ccncc3)c2)cs1 [Compound 75, (S)—N-(4-methyl-1-oxo-1-((4-(3-(pyridin-4-yl)phenyl)thiazol-2-yl)amino)pentan-2-yl)-1-(methylsulfonyl)-1H-pyrrole-3-carboxamide]			> 0.01 µM	> 0.01 µM	
COC[C@H](NC(=O)c1ccn(S(C)(=O)=O)c1)C(=O)Nc1nc(-c2cccc(C3=CC(C)(C)OC(C)(C)C3)c2)cs1 [Compound 354]			> 0.01 µM	> 0.01 µM	
